The source of these data is ChEMBL document CHEMBL2203251, “Discovery of two clinical histamine H(3) receptor antagonists: trans-N-ethyl-3-fluoro-3-[3-fluoro-4-(pyrrolidinylmethyl)phenyl]cyclobutanecarboxamide (PF-03654746) and trans-3-fluoro-3-[3-fluoro-4-(pyrrolidin-1-ylmethyl)phenyl]-N-(2-methylpropyl)cyclobutanecarboxamide (PF-03654764)” (J Med Chem, 2011).

The nature of series [1]: in vitro. Particulars: human, Caco-2.
Description: Permeability across apical to basolateral side in human Caco2 cells at 2 uM
Series [2] is described as follows: in vivo. Particulars: Sprague-Dawley, rat, po.
Description: Tmax in po dosed Sprague-Dawley rat administered for 14 days
The conditions of series [3]: human, thle, 24 h.
Description: Toxicity in human THLE cells assessed as drug-induced phospholipid accumulation after 24 hrs by Hoechst staining-based microscopic analysis
Series [4] can be described thus: in vivo. Particulars: beagle, dog, po.
Description: Toxicity in po dosed beagle dog administered for 7 days
Series [5] in a line: in vitro. As to conditions: human, plasma.
Description: Fraction unbound in human plasma
Series [6] in a line: in vivo. As to conditions: beagle, dog, po. The source holds these as a separate data set.
Description: Tmax in po dosed beagle dog administered for 7 days
Series [7] deals with Rattus norvegicus. Description: Toxicity in Sprague-Dawley rat assessed as salivation at >= 100 mg/kg, po administered for 14 days. Format: organism-based. On the set-up: dose 100 mg/kg, route oral. Particulars: in vivo, 336 h.
The subject of the next series is Canis familiaris. Put plainly: Toxicity in beagle dog assessed as convulsion at 30 mg/kg, po administered for 7 days measured on day 3. On the set-up: dose 30 mg/kg, route oral. As to conditions: in vivo, 168 h. It is filed as organism-based, Canis lupus familiaris.
Series [8] can be described thus: AUC in Sprague-Dawley rat at 300 mg/kg, po administered for 14 days. It is filed as ADME, organism-based. Further details: dose 300 mg/kg, route oral. As to conditions: plasma.
Series [9] has as its target T1, Histamine H3 receptor (Homo sapiens, UniProt Q9Y5N1).
Description: Displacement of [3H]-n-alpha-methylhistamine from human histamine H3 receptor homogenate after 60 mins by scintillation counting
For series [10], the species on record is Homo sapiens. Put plainly: Selectivity ratio of Ki for human histamine H1 receptor to Ki for human histamine H3 receptor.
The nature of series [11]: in vivo. Particulars: Sprague-Dawley, rat, po. The source holds these as a separate data set.
Description: Tmax in po dosed Sprague-Dawley rat administered for 4 days
Series [12] can be described thus: in vitro. As to conditions: rat, plasma.
Description: Fraction unbound in rat plasma
The nature of series [13]: in vivo. Particulars: Sprague-Dawley, rat, plasma, po.
Description: AUC (0 to 24 hrs) in po dosed Sprague-Dawley rat administered for 14 days
In series [14] the target is T2, Histamine H3 receptor (Rattus norvegicus, UniProt Q9QYN8).
T2 sequence (Q9QYN8 whole entry): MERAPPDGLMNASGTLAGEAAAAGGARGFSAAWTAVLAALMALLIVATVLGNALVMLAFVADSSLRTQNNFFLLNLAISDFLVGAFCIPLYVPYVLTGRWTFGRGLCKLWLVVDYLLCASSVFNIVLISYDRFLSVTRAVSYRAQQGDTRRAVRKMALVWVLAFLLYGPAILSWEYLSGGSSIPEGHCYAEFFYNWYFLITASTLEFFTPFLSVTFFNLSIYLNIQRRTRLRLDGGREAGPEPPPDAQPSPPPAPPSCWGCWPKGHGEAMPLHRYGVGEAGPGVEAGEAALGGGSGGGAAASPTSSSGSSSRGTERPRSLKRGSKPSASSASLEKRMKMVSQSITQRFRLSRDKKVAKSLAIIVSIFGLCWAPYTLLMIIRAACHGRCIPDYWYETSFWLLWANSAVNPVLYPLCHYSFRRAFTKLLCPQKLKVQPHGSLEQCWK
Description: Antagonist activity at rat histamine H3 receptor expressed in human HEK293 cells assessed as inhibition of forskolin-induced cAMP release pretreated 10 mins prior forskolin stimulation measured after 4.5 hrs by spectrofluorimetric analysis
Series [15] in a line: in vivo. As to conditions: beagle, dog, po. This is another data set of the same source.
Description: Cmax in po dosed beagle dog administered for 7 days
The target in series [16] is T1, Histamine H3 receptor. The source holds these as a separate data set.
Description: Antagonist activity at human histamine H3 receptor expressed in human HEK293 cells assessed as inhibition of forskolin-induced cAMP release pretreated 10 mins prior forskolin stimulation measured after 4.5 hrs by spectrofluorimetric analysis
Series [17] deals with Rattus norvegicus. Put plainly: Toxicity in Sprague-Dawley rat assessed as decrease in body weight at 300 mg/kg, po administered for 14 days. Particulars: in vivo, 336 h. Further details: dose 300 mg/kg, route oral. Format: organism-based.
Series [18] in a line: in vivo. Particulars: Sprague-Dawley, rat, po. This is another data set of the same source.
Description: Oral bioavailability in Sprague-Dawley rat
A short description of series [19]: in vitro. As to conditions: human, liver microsomes.
Description: Half life in human liver microsomes
The nature of series [20]: in vivo. As to conditions: Sprague-Dawley, rat, po. This is another data set of the same source.
Description: Cmax in po dosed Sprague-Dawley rat administered for 14 days
The species entered for series [21] is Homo sapiens. Put plainly: Selectivity ratio of Ki for human histamine H2 receptor to Ki for human histamine H3 receptor.
For series [22], the species on record is Homo sapiens. Description: Selectivity ratio of Ki for human histamine H4 receptor to Ki for human histamine H3 receptor.
The test system of another series is MDR1 (human). Description: in vitro. Particulars: dog, MDCK-MDR1.
Series [23] can be described thus: in vivo. As to conditions: beagle, dog, plasma, po.
Description: AUC (0 to 24 hrs) in po dosed beagle dog administered for 7 days
Series [24] can be described thus: Ratio of drug uptake in brain to plasma of Sprague-Dawley rat. It is filed as ADME. Particulars: read-out: BPR.
The target of series [25] is T2, Histamine H3 receptor. This is another data set of the same source.
Description: Displacement of [3H]-n-alpha-methylhistamine from rat histamine H3 receptor homogenate after 60 mins by scintillation counting
In series [26] the test system is Rattus norvegicus. Put plainly: Toxicity in Sprague-Dawley rat assessed as decrease in food intake at 300 mg/kg, po administered for 14 days. Format: organism-based. On the set-up: dose 300 mg/kg, route oral. As to conditions: in vivo, 336 h.
The next series has as its system Liver microsomes. Particulars: human.
Series [27] in a line: in vivo. As to conditions: Sprague-Dawley, rat, po. This is another data set of the same source.
Description: Toxicity in po dosed Sprague-Dawley rat administered for 14 days
Series [28] deals with Rattus norvegicus. Put plainly: Toxicity in Sprague-Dawley rat assessed as compound-induced phospholipidosis in lung at >= 50 mg/kg, po administered for 14 days. Format: organism-based. On the set-up: dose 50 mg/kg, route oral. Particulars: in vivo, 336 h.
Series [29] can be described thus: AUC in Sprague-Dawley rat at >[…] mg/kg, po administered for 14 days measured on day 1. As to conditions: plasma, 50 mg/kg. Format: ADME, organism-based.
In series [30] the test system is Rattus norvegicus. Put plainly: Toxicity in Sprague-Dawley rat assessed as compound-induced phospholipidosis in liver at >= 50 mg/kg, po administered for 14 days. It is filed as organism-based. Further details: dose 50 mg/kg, route oral. Particulars: in vivo, 336 h.

T1 sequence (Q9Y5N1 whole entry): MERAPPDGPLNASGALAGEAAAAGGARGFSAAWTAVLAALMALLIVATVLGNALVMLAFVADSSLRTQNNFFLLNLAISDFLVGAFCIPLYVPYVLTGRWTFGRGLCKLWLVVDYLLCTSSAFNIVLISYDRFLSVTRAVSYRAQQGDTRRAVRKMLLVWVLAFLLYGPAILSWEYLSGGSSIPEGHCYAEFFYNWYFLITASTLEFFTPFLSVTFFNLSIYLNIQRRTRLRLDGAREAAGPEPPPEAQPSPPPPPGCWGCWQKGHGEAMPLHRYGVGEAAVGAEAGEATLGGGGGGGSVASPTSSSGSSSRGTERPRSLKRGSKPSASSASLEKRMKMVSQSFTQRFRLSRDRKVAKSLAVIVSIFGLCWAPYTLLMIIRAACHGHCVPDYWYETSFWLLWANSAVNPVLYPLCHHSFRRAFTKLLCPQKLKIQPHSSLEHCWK
Description for Liver microsomes: Unbound intrinsic clearance in human liver microsomes
Description for MDR1 (human): Efflux ratio of permeability across basal to apical side over apical to basolateral side in dog MDCK cells expressing human MDR1
Description for physchem: Dissociation constant, pKa of the compound

Molecule `CCNC(=O)[C@H]1C[C@@](F)(c2ccc(CN3CCCC3)c(F)c2)C1` [PF-03654746] yielded a Papp A→B at 2 µM in the series “in vitro [1]” of 44.7 ×10⁻⁶ cm/s. Besides, the Tmax at 336 h in “in vivo [2]” was found to be 30 min. Moreover, the MED in series [3] was found to be 302.4 µM. Moreover, the MTD at 168 h in the series “in vivo [4]” is ≥ 15 mg/kg. Moreover, the fraction unbound in “in vitro [5]” was found to be 0.66; in “in vitro [12]” it was 0.7. Besides, in the series “in vivo [6]”, the Tmax at 168 h stood at 30 min. Besides, the Activity result in the series on Rattus norvegicus [7], in the series with Canis familiaris, in the series on Rattus norvegicus [17] and in the series on Rattus norvegicus [26] was “Toxic” each time. In addition, the AUC at 336 h in [8] stood at 189000 ng·h/mL. Moreover, the Ki came to 2.3 nM at Histamine H3 receptor [9], 8.9 nM on Histamine H3 receptor [14], 1.7 nM on Histamine H3 receptor [16] and 37 nM at Histamine H3 receptor [25]. Further, the Ratio Ki in the series listed under Homo sapiens [10], in the series listed under Homo sapiens [21] and in the series filed under Homo sapiens [22] was > 1000 each time. Besides, the Tmax at 96 h in the series “in vivo [11]” worked out at 30 min. In addition, the AUC at 24 h in “in vivo [13]” worked out at 189000 ng·h/mL; in the series “in vivo [23]” it was 18900 ng·h/mL. This molecule displayed a Cmax at 168 h in “in vivo [15]” of 13 µM. Moreover, in the series “physchem”, the pKa is 9.2. For the same molecule, in “in vivo [18]”, the bioavailability came out at 25.9%. Further, in the series “in vitro [19]”, the half-life was > 120 min. This molecule also displayed a Cmax at 336 h in the series “in vivo [20]” of 43.5 µM. Moreover, in the series with MDR1 (human), the efflux ratio is 1.1. The Kp in series [24] amounted to 2.1. Moreover, the CL free in the series with Liver microsomes was < 5 mL/min/kg. Further, the MTD at 336 h in the series “in vivo [27]” was 30 mg/kg.
Take `CN(C)Cc1ccc(-c2ccc(CN(C)C)cc2)cc1`: the Ki at Histamine H3 receptor [9] is 1.3 nM; at Histamine H3 receptor [25], 9.3 nM. The molecule further gave a CL free in the series on Liver microsomes of 219 mL/min/kg.
In turn, `c1cnc(OC[C@H]2C[C@H](c3ccc(CN4CCCC4)cc3)C2)nc1` gave a Papp A→B at 2 µM in “in vitro [1]” of 32.5 ×10⁻⁶ cm/s. Besides, the Tmax at 336 h in “in vivo [2]” came out at 30 min. In series [3], this molecule had an MED of 119.5 µM. Besides, the results for the fraction unbound in the series “in vitro [5]” and in “in vitro [12]” were 0.44 and 0.47, respectively. For the same molecule, the Tmax at 168 h in the series “in vivo [6]” came to 30 min. The Activity result with Rattus norvegicus [28] and in the series on Rattus norvegicus [30] was “Toxic” each time. Moreover, the Ki on Histamine H3 receptor [9] was determined as 8.7 nM; on Histamine H3 receptor [14], 79 nM; at Histamine H3 receptor [16], 12 nM; at Histamine H3 receptor [25] it was 82 nM. In the series “in vivo [11]”, the Tmax at 96 h was 30 min. The molecule further had an AUC at 24 h in the series “in vivo [13]” of 1280 ng·h/mL. Also, the pKa in the series “physchem” amounted to 9.8. The half-life in “in vitro [19]” was > 120 min. In “in vivo [20]”, this molecule displayed a Cmax at 336 h of 0.402 µM. The molecule also had an AUC at 336 h in [29] of 21300 ng·h/mL. In addition, the efflux ratio with MDR1 (human) worked out at 0.9. Also, in the series with Liver microsomes, the CL free was < 8 mL/min/kg. The MTD at 336 h in the series “in vivo [27]” is ≥ 5 mg/kg.
